Experimental data published in US20250304567A1, “PYRROLIDIONE DERIVATIVES AS INHIBITORS OF NF KAPPA B INDUCING KINASE” (priority 2022, published 2025).
Like-named read-outs stand apart in the source and are kept apart here.

Assays:
[1] = target: Recombinant Human NF-kappaB-Inducing Kinase (NIK/MAP3K14) (Homo sapiens, UniProt Q99558); experiment: Inhibition of auto-phosphorylation of recombinant human NIK/MAP3K14 activity (AlphaScreen); assay type: biochemical; details: 5 μM ATP, 1 nM NIK, average if tested more than once
Procedure, shortened: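 GST-tagged NIK (1 nM) auto-phosphorylation with 5 μM ATP, 2 h at 25 °C, pH 7.5 Tris buffer, 0.7% DMSO; stopped with anti-phospho-IKK Ser176/180 antibody and read by AlphaScreen. Signal normalized to full-activity and no-enzyme/no-ATP controls; IC50 from sigmoidal fit of % inhibition vs log concentration.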

[2] = tested on: p-IKKa levels in L363 (NIK translocated multiple myeloma) cells; experiment: Effect of compounds on p-IKKa levels in L363 (NIK translocated multiple myeloma) cells (AlphaLISA SureFire Ultra p-IKKa Ser176/180); assay type: cell-based, human; details: average if tested more than once, read-out: Assay 2 IC50
Procedure, shortened: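 L363 multiple myeloma cells, BAFF-stimulated overnight (250 ng/ml), then 6 h at 37 °C with compound (11-point 1:3 series, 0.3% DMSO) plus BAFF and 10 μM MG132. p-IKKa Ser176/180 read by AlphaLISA SureFire Ultra; IC50 from sigmoidal fit normalised to stimulated and unstimulated controls.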

[3] = Homo sapiens, L-363, p-IKKa levels in L363 cells

Sequence of Recombinant Human NF-kappaB-Inducing Kinase (NIK/MAP3K14) (Q99558 whole entry): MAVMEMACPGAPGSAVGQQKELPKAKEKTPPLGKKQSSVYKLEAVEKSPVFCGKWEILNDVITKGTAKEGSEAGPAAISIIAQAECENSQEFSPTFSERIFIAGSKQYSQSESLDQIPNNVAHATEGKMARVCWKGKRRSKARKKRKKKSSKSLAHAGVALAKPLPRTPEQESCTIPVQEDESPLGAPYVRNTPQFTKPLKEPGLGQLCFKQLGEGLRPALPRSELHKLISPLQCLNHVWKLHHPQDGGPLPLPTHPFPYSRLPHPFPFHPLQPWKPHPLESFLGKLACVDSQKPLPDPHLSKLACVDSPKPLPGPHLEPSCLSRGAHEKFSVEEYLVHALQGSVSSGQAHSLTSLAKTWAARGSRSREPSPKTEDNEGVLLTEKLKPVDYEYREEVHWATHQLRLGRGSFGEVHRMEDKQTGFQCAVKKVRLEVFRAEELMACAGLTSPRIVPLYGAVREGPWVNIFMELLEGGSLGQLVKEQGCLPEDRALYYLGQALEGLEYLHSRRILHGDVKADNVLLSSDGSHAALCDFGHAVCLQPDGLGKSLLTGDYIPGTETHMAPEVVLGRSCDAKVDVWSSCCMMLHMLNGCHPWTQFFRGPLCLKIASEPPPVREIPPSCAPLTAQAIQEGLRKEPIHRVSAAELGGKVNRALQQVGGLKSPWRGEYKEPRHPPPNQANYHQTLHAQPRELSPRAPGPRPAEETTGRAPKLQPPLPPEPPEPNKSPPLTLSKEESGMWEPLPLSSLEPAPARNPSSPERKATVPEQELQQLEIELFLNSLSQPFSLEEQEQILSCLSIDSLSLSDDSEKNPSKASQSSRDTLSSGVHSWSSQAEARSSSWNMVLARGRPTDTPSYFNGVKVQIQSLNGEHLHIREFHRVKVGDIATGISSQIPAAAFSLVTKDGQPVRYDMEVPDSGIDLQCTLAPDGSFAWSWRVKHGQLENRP

CN1CC[C@@](O)(c2cccc(-c3cccc(-c4ccnc(Nc5ccn(C)n5)n4)n3)c2)C1=O [Example 22, (R)-3-Hydroxy-1-methyl-3-(3-(6-(2-((1-methyl-1H-pyrazol-3-yl)amino)pyrimidin-4-yl)pyridin-2-yl)phenyl)pyrrolidin-2-one] was tested, and the IC50 [1] was over 501 nM and the IC50 [2, 3] was over 501 nM.
CN1CC[C@@](O)(c2cccc(-c3cccc(-c4ccnc(NCCCO)n4)n3)c2)C1=O [Example 23, (R)-3-Hydroxy-3-(3-(6-(2-((3-hydroxypropyl)amino)pyrimidin-4-yl)pyridin-2-yl)phenyl)-1-methylpyrrolidin-2-one] gave an IC50 [1] of over 501 nM and an IC50 [2, 3] of over 501 nM.
C[C@H](Nc1nccc(-n2ccc(-c3cccc([C@]4(O)CCN(C)C4=O)c3)n2)n1)c1cnn(C)c1 (single isomer, unassigned) [Example 93] gave an IC50 [1] of under 100 nM and an IC50 [2, 3] of 100 to 500 nM.
CN1CC[C@@](O)(c2cccc(-c3nc(-c4ccnc(NCCC(C)(C)O)n4)cs3)c2)C1=O [Example 239] showed an IC50 [1] of 100 to 500 nM and an IC50 [2, 3] of over 501 nM.
In the case of CN1CC[C@@](O)(c2cccc(-c3csc(-c4ccnc(Nc5cnn(CCO)c5)n4)n3)c2)C1=O [Example 83, (R)-3-hydroxy-3-(3-(2-(2-((1-(2-hydroxyethyl)-1H-pyrazol-4-yl)amino)pyrimidin-4-yl)thiazol-4-yl)phenyl)-1-methylpyrrolidin-2-one], the IC50 [1] is reported as under 100 nM and the IC50 [2, 3] is reported as over 501 nM.
COCCn1ccc(Nc2nccc(-c3csc(-c4cccc([C@]5(O)CCN(C)C5=O)c4)n3)n2)n1 [Example 260, (R)-3-Hydroxy-3-(3-(4-(2-((1-(2-methoxyethyl)-1H-pyrazol-3-yl)amino)pyrimidin-4-yl)thiazol-2-yl)phenyl)-1-methylpyrrolidin-2-one] gave an IC50 [1] of under 100 nM and an IC50 [2, 3] of 100 to 500 nM.
For CN1CC[C@@](O)(c2cccc(-c3nc(-c4ccnc(Nc5nccc(C(F)(F)F)n5)n4)cs3)c2)C1=O [Example 165, (R)-3-Hydroxy-1-methyl-3-(3-(4-(2-((4-(trifluoromethyl)pyrimidin-2-yl)amino)pyrimidin-4-yl)thiazol-2-yl)phenyl)pyrrolidin-2-one], the IC50 [1] was 100 to 500 nM and the IC50 [2, 3] was over 501 nM.
CN1CC[C@@](O)(c2cccc(-c3nc(-c4ccnc(N[C@H]5CC[C@@H](O)C5)n4)cs3)c2)C1=O [Example 253] gave an IC50 [1] of under 100 nM and an IC50 [2, 3] of over 501 nM.
Work on CNC(=O)c1ccc(C)c(Nc2nccc(-c3csc(-c4cccc([C@]5(O)CCN(C)C5=O)c4)n3)n2)c1 [Example 10, (R)-3-((4-(2-(3-(3-Hydroxy-1-methyl-2-oxopyrrolidin-3-yl)phenyl)thiazol-4-yl)pyrimidin-2-yl)amino)-N,4-dimethylbenzamide] yielded an IC50 [1] of under 100 nM and an IC50 [2, 3] of 100 to 500 nM.
Molecule Cc1cc(CNc2nccc(-c3csc(-c4cccc([C@]5(O)CCN(C)C5=O)c4)n3)n2)n[nH]1 [Example 113, (R)-3-hydroxy-1-methyl-3-(3-(4-(2-(((3-methyl-1H-pyrazol-5-yl)methyl)amino)pyrimidin-4-yl)thiazol-2-yl)phenyl)pyrrolidin-2-one] has an IC50 [1] of under 100 nM and an IC50 [2, 3] of over 501 nM.
For CN1CC[C@@](O)(c2cccc(-c3nc(-c4ccnc(Nc5cnn(C6CCOC6)c5)n4)cs3)c2)C1=O (single isomer, unassigned) [Example 19], the IC50 [1] was under 100 nM and the IC50 ([2]; p-IKKa levels in L363 cells) was under 100 nM.
In the case of CN1CC[C@@](O)(c2cccc(-c3csc(-c4ccnc(NC5COC5)n4)n3)c2)C1=O [Example 128, (R)-3-hydroxy-1-methyl-3-(3-(2-(2-(oxetan-3-ylamino)pyrimidin-4-yl)thiazol-4-yl)phenyl)pyrrolidin-2-one], the IC50 [1] is reported as under 100 nM and the IC50 [2, 3] is reported as 100 to 500 nM.
For CN1CC[C@@](O)(c2cccc(-c3nc(-c4ccnc(NC5CCN(c6cnn(C)c6)C5)n4)cs3)c2)C1=O (stereo partly drawn) [Example 120, (R)-3-hydroxy-1-methyl-3-(3-(4-(2-(((R,S)-1-(1-methyl-1H-pyrazol-4-yl)pyrrolidin-3-yl)amino)pyrimidin-4-yl)thiazol-2-yl)phenyl)pyrrolidin-2-one], the IC50 [1] was 100 to 500 nM and the IC50 [2, 3] was over 501 nM.
CN1CC[C@@](O)(c2cccc(-c3nc(-c4ccnc(NC5CCN(C6COC6)CC5)n4)cs3)c2)C1=O [Example 228] gave an IC50 [1] of over 501 nM and an IC50 [2, 3] of over 501 nM.
For CN1CC[C@@](O)(c2ccnc(-c3ccn(-c4ccnc(Nc5cnn6ccccc56)n4)n3)c2)C1=O (single isomer, unassigned) [Example 153, (R)-3-hydroxy-1-methyl-3-(2-(1-(2-(pyrazolo[1,5-a]pyridin-3-ylamino)pyrimidin-4-yl)-1H-pyrazol-3-yl)pyridin-4-yl)pyrrolidin-2-one or (S)-3-hydroxy-1-methyl-3-(2-(1-(2-(pyrazolo[1,5-a]pyridin-3-ylamino)pyrimidin-4-yl)-1H-pyrazol-3-yl)pyridin-4-yl)pyrrolidin-2-one], the IC50 [1] was under 100 nM and the IC50 [2, 3] was under 100 nM.
CN1CC[C@@](O)(c2cccc(-c3ccn(-c4ccnc(Nc5ccn(C)n5)n4)n3)c2)C1=O [Example 2, (R)-3-hydroxy-1-methyl-3-(3-(1-(2-((1-methyl-1H-pyrazol-3-yl)amino)pyrimidin-4-yl)-1H-pyrazol-3-yl)phenyl)pyrrolidin-2-one] showed an IC50 [1] of under 100 nM and an IC50 [2, 3] of 100 to 500 nM.
For CN1CC[C@@](O)(c2cccc(-c3nc(-c4ccnc(Nc5cn(CC(F)F)nc5OC5CC5)n4)cs3)c2)C1=O [Example 9, (R)-3-(3-(4-(2-((3-Cyclopropoxy-1-(2,2-difluoroethyl)-1H-pyrazol-4-yl)amino)pyrimidin-4-yl)thiazol-2-yl)phenyl)-3-hydroxy-1-methylpyrrolidin-2-one], the IC50 [1] was under 100 nM and the IC50 [2, 3] was under 100 nM.
CC(Nc1nccc(-c2csc(-c3cccc([C@]4(O)CCN(C)C4=O)c3)n2)n1)c1nc2ccccc2[nH]1 (stereo partly drawn) [Example 45, (R)-3-(3-(4-(2-(((R,S)-1-(1H-benzo[d]imidazol-2-yl)ethyl)amino)pyrimidin-4-yl)thiazol-2-yl)phenyl)-3-hydroxy-1-methylpyrrolidin-2-one] was tested, and the IC50 [1] was under 100 nM and the IC50 ([2]; p-IKKa levels in L363 cells) was over 501 nM.
Work on CN1CC[C@@](O)(c2cccc(-c3nc(-c4ccnc(Nc5cc6c(nn5)CCC6)n4)cs3)c2)C1=O [Example 71, (R)-3-(3-(4-(2-((6,7-dihydro-5H-cyclopenta[c]pyridazin-3-yl)amino)pyrimidin-4-yl)thiazol-2-yl)phenyl)-3-hydroxy-1-methylpyrrolidin-2-one] yielded an IC50 [1] of under 100 nM and an IC50 [2, 3] of over 501 nM.
For CN1CC[C@@](O)(c2cncc(-c3csc(-c4ccnc(Nc5cnn(C)c5)n4)n3)c2)C1=O (single isomer, unassigned) [Example 152, (R)-3-hydroxy-1-methyl-3-(5-(2-(2-((1-methyl-1H-pyrazol-4-yl)amino)pyrimidin-4-yl)thiazol-4-yl)pyridin-3-yl)pyrrolidin-2-one or (S)-3-hydroxy-1-methyl-3-(5-(2-(2-((1-methyl-1H-pyrazol-4-yl)amino)pyrimidin-4-yl)thiazol-4-yl)pyridin-3-yl)pyrrolidin-2-one], the IC50 [1] was under 100 nM and the IC50 [2, 3] was 100 to 500 nM.
With CN1CC[C@@](O)(c2cccc(-c3csc(-c4ccnc(Nc5cnn(CC(C)(C)O)c5)n4)n3)c2)C1=O [Example 89, (R)-3-hydroxy-3-(3-(2-(2-((1-(2-hydroxy-2-methylpropyl)-1H-pyrazol-4-yl)amino)pyrimidin-4-yl)thiazol-4-yl)phenyl)-1-methylpyrrolidin-2-one] the IC50 [1] was under 100 nM and the IC50 [2, 3] was under 100 nM.
With C[C@@H](Nc1nccc(-c2nc(-c3cc([C@]4(O)CCN(C)C4=O)ccn3)cs2)n1)c1ccn(C)n1 (single isomer, unassigned) [Example 157, (R)-3-hydroxy-1-methyl-3-(2-(2-(2-(((R)-1-(1-methyl-1H-pyrazol-3-yl)ethyl)amino)pyrimidin-4-yl)thiazol-4-yl)pyridin-4-yl)pyrrolidin-2-one or (S)-3-hydroxy-1-methyl-3-(2-(2-(2-(((R)-1-(1-methyl-1H-pyrazol-3-yl)ethyl)amino)pyrimidin-4-yl)thiazol-4-yl)pyridin-4-yl)pyrrolidin-2-one] the IC50 [1] was 100 to 500 nM and the IC50 [2, 3] was over 501 nM.
With CN1CC[C@@](O)(c2ccnc(-c3ccn(-c4ccnc(Nc5cnn6cccnc56)n4)n3)c2)C1=O (single isomer, unassigned) [Example 149, (R)-3-hydroxy-1-methyl-3-(2-(1-(2-(pyrazolo[1,5-a]pyrimidin-3-ylamino)pyrimidin-4-yl)-1H-pyrazol-3-yl)pyridin-4-yl)pyrrolidin-2-one or (S)-3-hydroxy-1-methyl-3-(2-(1-(2-(pyrazolo[1,5-a]pyrimidin-3-ylamino)pyrimidin-4-yl)-1H-pyrazol-3-yl)pyridin-4-yl)pyrrolidin-2-one] the IC50 [1] was under 100 nM and the IC50 [2, 3] was over 501 nM.
Work on CN1CCC(O)(c2cc(F)cc(-c3csc(-c4ccnc(Nc5ccn(C)n5)n4)n3)c2)C1=O (single isomer, unassigned) [Example 27, 3-(3-fluoro-5-(2-(2-((1-methyl-1H-pyrazol-3-yl)amino)pyrimidin-4-yl)thiazol-4-yl)phenyl)-3-hydroxy-1-methylpyrrolidin-2-one] yielded an IC50 [1] of under 100 nM and an IC50 ([2]; p-IKKa levels in L363 cells) of 100 to 500 nM.
Molecule CN1CC[C@](O)(c2cc(-c3csc(-c4ccnc(Nc5ccn(C)n5)n4)n3)ccc2F)C1=O (single isomer, unassigned) [Example 25] has an IC50 [1] of 100 to 500 nM and an IC50 [2, 3] of over 501 nM.
For CN1CC[C@@](O)(c2cccc(-c3nc(-c4ccnc(NCc5ccccn5)n4)cs3)c2)C1=O [Example 182], the IC50 [1] was 100 to 500 nM and the IC50 [2, 3] was over 501 nM.
